Measurements from ChEMBL document CHEMBL1201862, “PubChem BioAssay data set” (2004).
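The compound was tested at five concentrations on cells cultured in 96-well plates, with a 48-hour exposure period. GI50: concentration for 50% inhibition of growth.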 The source made the active and inactive calls. Cut-off read from the data, not from the text of the source: active = GI50 up to about 1.1 µM and inactive = higher.

How the values were obtained:
Assay in all cases: NCI-60 cell line screen, 48 h
SK-MEL-5 = test system: SK-MEL-5
HT-29 = test system: HT-29
SN12C = test system: SN12C
SK-MEL-2 = test system: SK-MEL-2
SR = test system: SR
SK-OV-3 = test system: SK-OV-3
HOP-62 = test system: HOP-62
Malme-3M = test system: Malme-3M
OVCAR-4 = test system: OVCAR-4
OVCAR-3 = test system: OVCAR-3
HOP-92 = test system: HOP-92
OVCAR-8 = test system: OVCAR-8
SF-295 = test system: SF-295
K562 = test system: K562
HCT-116 = test system: HCT-116
LOX IMVI = test system: LOX IMVI

Row | SMILES | GI50 (SK-MEL-5) | GI50 (HT-29) | GI50 (SN12C) | GI50 (SK-MEL-2) | GI50 (SR) | GI50 (SK-OV-3) | GI50 (HOP-62) | GI50 (Malme-3M) | GI50 (OVCAR-4) | GI50 (OVCAR-3) | GI50 (HOP-92) | GI50 (OVCAR-8) | GI50 (SF-295) | GI50 (K562) | GI50 (HCT-116) | GI50 (LOX IMVI)
1 | O=C1Nc2ccccc2N/C1=C\C(=O)c1ccccc1O | > 100 µM (inactive) | > 100 µM (inactive) | > 100 µM (inactive) | > 100 µM (inactive) | > 100 µM (inactive) | > 100 µM (inactive) | > 100 µM (inactive) | > 100 µM (inactive) | > 100 µM (inactive) | > 100 µM (inactive) | > 100 µM (inactive) | > 100 µM (inactive) | > 100 µM (inactive) | > 100 µM (inactive) | > 100 µM (inactive) | > 100 µM (inactive)
2 | C[C@]12CCC(=O)C(O)=C1CC[C@@H]1C2CC[C@]2(C)Nc3c(cnn3-c3ccccc3)CC12 (some centres not stated) | 38.8 µM (inactive) | 39.4 µM (inactive) | – | > 100 µM (inactive) | – | > 100 µM (inactive) | > 100 µM (inactive) | 91 µM (inactive) | 96.2 µM (inactive) | 54.8 µM (inactive) | – | 64.4 µM (inactive) | 52.7 µM (inactive) | 40.6 µM (inactive) | 28.2 µM (inactive) | –
3 | CC(=O)C1C(c2ccccc2)C2(C)OC(=O)C(C#N)C12C (configuration not stated) | > 100 µM (inactive) | – | > 100 µM (inactive) | > 100 µM (inactive) | – | > 100 µM (inactive) | – | > 100 µM (inactive) | > 100 µM (inactive) | > 100 µM (inactive) | – | > 100 µM (inactive) | > 100 µM (inactive) | > 100 µM (inactive) | > 100 µM (inactive) | > 100 µM (inactive)
4 | NC(CCCNCc1ccccc1O)C(=O)O (configuration not stated) | > 100 µM (inactive) | > 100 µM (inactive) | > 100 µM (inactive) | > 100 µM (inactive) | – | > 100 µM (inactive) | > 100 µM (inactive) | > 100 µM (inactive) | > 100 µM (inactive) | > 100 µM (inactive) | > 100 µM (inactive) | > 100 µM (inactive) | > 100 µM (inactive) | > 100 µM (inactive) | > 100 µM (inactive) | > 100 µM (inactive)
5 | CCOC(=O)C(C(=O)OCC)=C1C=C(c2ccccc2)c2ccccc21 | 31.1 µM (inactive) | 42.8 µM (inactive) | > 100 µM (inactive) | > 100 µM (inactive) | – | > 100 µM (inactive) | 13.3 µM (inactive) | > 100 µM (inactive) | 38.3 µM (inactive) | > 100 µM (inactive) | 8.09 µM (inactive) | > 100 µM (inactive) | 31.2 µM (inactive) | 36.6 µM (inactive) | 48.9 µM (inactive) | 28.8 µM (inactive)
6 | CC(=O)Nc1ccc(S(=O)(=O)N/N=C/CN2C(=O)c3ccccc3C2=O)cc1 | > 100 µM (inactive) | > 100 µM (inactive) | > 100 µM (inactive) | > 100 µM (inactive) | > 100 µM (inactive) | – | > 100 µM (inactive) | > 100 µM (inactive) | > 100 µM (inactive) | – | – | > 100 µM (inactive) | > 100 µM (inactive) | > 100 µM (inactive) | > 100 µM (inactive) | > 100 µM (inactive)
7 | Cc1ccc(-c2cc(=O)c3cc(C)c(C)c(C(=O)O)c3o2)cc1N | > 100 µM (inactive) | > 100 µM (inactive) | > 100 µM (inactive) | > 100 µM (inactive) | – | > 100 µM (inactive) | – | > 100 µM (inactive) | > 100 µM (inactive) | > 100 µM (inactive) | – | > 100 µM (inactive) | > 100 µM (inactive) | > 100 µM (inactive) | > 100 µM (inactive) | > 100 µM (inactive)
8 | O=c1c2cccc3cccc(c4oc5c6cccc7cccc(c(=O)c5c14)c76)c32 | 15.2 µM (inactive) | 13.8 µM (inactive) | 13.8 µM (inactive) | 15.7 µM (inactive) | 7.66 µM (inactive) | 28.9 µM (inactive) | > 100 µM (inactive) | 12.5 µM (inactive) | – | 12 µM (inactive) | 8.22 µM (inactive) | 11.1 µM (inactive) | 17.9 µM (inactive) | > 10 µM (inactive) | 2.25 µM (inactive) | 12.2 µM (inactive)
9 | CCN(CC)CCN1CCc2c([nH]c3ccccc23)C1c1cccnc1 (configuration not stated) | > 100 µM (inactive) | > 100 µM (inactive) | > 100 µM (inactive) | – | > 100 µM (inactive) | > 100 µM (inactive) | > 100 µM (inactive) | – | > 100 µM (inactive) | > 100 µM (inactive) | 65 µM (inactive) | > 100 µM (inactive) | > 100 µM (inactive) | 88.9 µM (inactive) | > 100 µM (inactive) | > 100 µM (inactive)
10 | Cc1cc2c(=O)c3ccccc3[nH]c2c(C(=O)O)c1C | – | > 100 µM (inactive) | > 100 µM (inactive) | > 100 µM (inactive) | > 100 µM (inactive) | – | > 100 µM (inactive) | – | > 100 µM (inactive) | > 100 µM (inactive) | < 0.01 µM (active) | > 100 µM (inactive) | > 100 µM (inactive) | > 100 µM (inactive) | 76 µM (inactive) | –
11 | O=CC1CCC=CC1NC(=O)OCc1ccccc1 (configuration not stated) | 51.9 µM (inactive) | 51.4 µM (inactive) | 35 µM (inactive) | 38.5 µM (inactive) | 30.7 µM (inactive) | > 100 µM (inactive) | > 100 µM (inactive) | – | 94.6 µM (inactive) | – | 99.5 µM (inactive) | 22.7 µM (inactive) | 30.5 µM (inactive) | 4.68 µM (inactive) | 19.1 µM (inactive) | 48.4 µM (inactive)
12 | N#CC(/C(=N/NC(=N)N)C(=O)Nc1ccccc1[N+](=O)[O-])c1nc(-c2ccc([N+](=O)[O-])cc2)cs1 (configuration not stated) | > 100 µM (inactive) | > 100 µM (inactive) | > 100 µM (inactive) | > 100 µM (inactive) | > 100 µM (inactive) | > 100 µM (inactive) | > 100 µM (inactive) | > 100 µM (inactive) | > 100 µM (inactive) | > 100 µM (inactive) | – | > 100 µM (inactive) | > 100 µM (inactive) | > 100 µM (inactive) | > 100 µM (inactive) | > 100 µM (inactive)
13 | Cn1cnc2nc(Cl)nc(NC(C)(C)C(C)(C)O)c21 | > 100 µM (inactive) | > 100 µM (inactive) | > 100 µM (inactive) | > 100 µM (inactive) | > 100 µM (inactive) | > 100 µM (inactive) | > 100 µM (inactive) | > 100 µM (inactive) | > 100 µM (inactive) | > 100 µM (inactive) | > 100 µM (inactive) | > 100 µM (inactive) | > 100 µM (inactive) | > 100 µM (inactive) | > 100 µM (inactive) | –
14 | C=CCNC(=S)N/C=C1\C(=O)Oc2ccccc2C1=O | 43.8 µM (inactive) | > 100 µM (inactive) | 46.5 µM (inactive) | 13.2 µM (inactive) | – | 44.4 µM (inactive) | – | 27.4 µM (inactive) | > 100 µM (inactive) | 82 µM (inactive) | 30.5 µM (inactive) | 58.5 µM (inactive) | > 100 µM (inactive) | > 100 µM (inactive) | 49.5 µM (inactive) | 95.5 µM (inactive)
15 | c1ccc2c(c1)CCCc1cc3ccccc3nc1-2 | 92.5 µM (inactive) | 46.3 µM (inactive) | > 100 µM (inactive) | > 100 µM (inactive) | – | 38.7 µM (inactive) | > 100 µM (inactive) | > 100 µM (inactive) | 68.1 µM (inactive) | > 100 µM (inactive) | – | > 100 µM (inactive) | > 100 µM (inactive) | > 100 µM (inactive) | > 100 µM (inactive) | –
16 | C/C(CC(=O)Nc1ccc([N+](=O)[O-])cc1)=N\Nc1ccc([N+](=O)[O-])cc1[N+](=O)[O-] | 47.4 µM (inactive) | > 100 µM (inactive) | – | > 100 µM (inactive) | – | > 100 µM (inactive) | 50.1 µM (inactive) | > 100 µM (inactive) | – | 98.2 µM (inactive) | 73.6 µM (inactive) | > 100 µM (inactive) | 47.5 µM (inactive) | 20.2 µM (inactive) | 59.7 µM (inactive) | 10.7 µM (inactive)
17 | CC(=O)SC(SC(C)=O)SC(C)=O | > 100 µM (inactive) | 24.7 µM (inactive) | > 100 µM (inactive) | > 100 µM (inactive) | – | > 100 µM (inactive) | > 100 µM (inactive) | > 100 µM (inactive) | > 100 µM (inactive) | 91 µM (inactive) | – | > 100 µM (inactive) | – | 54.5 µM (inactive) | > 100 µM (inactive) | 58.5 µM (inactive)
18 | C=CC(=O)Nc1ccccc1CC(c1c[nH]c2ccccc12)c1c[nH]c2ccccc12 | 17.6 µM (inactive) | 18.3 µM (inactive) | 16.3 µM (inactive) | 17.7 µM (inactive) | – | 19.8 µM (inactive) | 19.6 µM (inactive) | 18 µM (inactive) | – | 17.7 µM (inactive) | – | 16.4 µM (inactive) | 22.1 µM (inactive) | 20.7 µM (inactive) | – | 18.5 µM (inactive)
19 | CCCCCCCCC(O)C#CC(N)=O (configuration not stated) | 12 µM (inactive) | 12.1 µM (inactive) | 7.59 µM (inactive) | 13.3 µM (inactive) | 12.9 µM (inactive) | – | – | 16.7 µM (inactive) | 2.51 µM (inactive) | 7.35 µM (inactive) | 10.5 µM (inactive) | 9.42 µM (inactive) | 39 µM (inactive) | 13.3 µM (inactive) | 3.67 µM (inactive) | 11.7 µM (inactive)
20 | O=C(NCCO)c1ccc([N+](=O)[O-])cc1 | > 100 µM (inactive) | > 100 µM (inactive) | > 100 µM (inactive) | > 100 µM (inactive) | – | > 100 µM (inactive) | > 100 µM (inactive) | > 100 µM (inactive) | – | > 100 µM (inactive) | – | > 100 µM (inactive) | > 100 µM (inactive) | > 100 µM (inactive) | – | > 100 µM (inactive)
